Test results reported in patent US5976497A, “Dopamine D4 receptor ligands” (Resolution Pharmaceuticals, Inc., priority 1997, dated 1999).

How the values were obtained:
D2 = target: T1, D2 (Homo sapiens, UniProt P14416); assay: D2 receptor-binding affinity (reduction of ^3 H-spiperone binding); conditions: for Ki: ^3 H-spiperone displacement, Ki by Cheng and Prusoff transformation of IC50
T1 construct: expressed in transfected cells; host or cells: GH4C1 (rat pituitary) cells, stably transfected; membrane preparations
T1 sequence (P14416 1-414 isoform P14416-2): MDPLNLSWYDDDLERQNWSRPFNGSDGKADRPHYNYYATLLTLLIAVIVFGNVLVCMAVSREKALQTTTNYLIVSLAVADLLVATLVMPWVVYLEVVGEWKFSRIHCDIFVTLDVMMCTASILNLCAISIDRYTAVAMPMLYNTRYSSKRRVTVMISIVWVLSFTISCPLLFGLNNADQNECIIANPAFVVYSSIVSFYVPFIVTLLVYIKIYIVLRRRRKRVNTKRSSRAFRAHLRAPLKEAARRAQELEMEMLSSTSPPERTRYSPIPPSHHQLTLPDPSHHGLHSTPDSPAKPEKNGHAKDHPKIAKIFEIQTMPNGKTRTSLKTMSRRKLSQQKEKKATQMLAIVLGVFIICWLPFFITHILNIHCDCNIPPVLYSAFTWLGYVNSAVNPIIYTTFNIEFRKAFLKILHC
Experimental: (§1) The potency of the test compound to reduce ^3 H-spiperone binding is directly correlated to its binding affinity for the receptor.
(§2) The test compounds were assayed at a range of concentrations and the % inhibition of ^3 H-spiperone binding at each test concentration was measured. Specific binding in the absence of test compound is the difference of total binding minus non-specific binding and similarly specific binding (in the presence of test compound) is the difference of displacement binding minus non-specific binding.
(§3) where [L] is the concentration of ^3 H-spiperone used in the assay and KD is the dissociation constant of ^3 H-spiperone determined independently under the same binding conditions.

D4 = target: T2, D4 (Homo sapiens, UniProt P21917, DEL265-296); assay: D4 receptor-binding affinity (reduction of ^3 H-spiperone binding); conditions: for Ki: ^3 H-spiperone displacement, Ki by Cheng and Prusoff transformation of IC50
T2 construct: expressed in transfected cells; host or cells: HEK 298 cells (so in the source); membrane preparations
T2 sequence (P21917 with tags, fused parts or gaps DEL265-296): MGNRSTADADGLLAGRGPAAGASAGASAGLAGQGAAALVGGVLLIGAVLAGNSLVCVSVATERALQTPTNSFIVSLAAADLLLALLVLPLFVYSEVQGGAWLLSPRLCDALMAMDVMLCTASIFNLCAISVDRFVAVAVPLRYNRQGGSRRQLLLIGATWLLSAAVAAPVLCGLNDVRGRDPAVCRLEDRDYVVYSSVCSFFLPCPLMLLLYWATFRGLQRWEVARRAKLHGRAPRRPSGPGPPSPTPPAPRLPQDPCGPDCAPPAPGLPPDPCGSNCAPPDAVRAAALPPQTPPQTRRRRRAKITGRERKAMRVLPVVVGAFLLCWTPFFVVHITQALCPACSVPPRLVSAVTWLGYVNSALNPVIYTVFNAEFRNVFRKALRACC
Experimental: as §1, §2, §3

[1] = system: D4 receptor relative to the D2 receptor; conditions: marketed products, background statement; cited from earlier work
D4 receptor = conditions: marketed products, background statement; cited from earlier work

**Q.** With `Brc1ccc(N2CCN(Cc3c[nH]c4ncccc34)CC2)nc1` [Example 3, 3-[4-(5-bromopyridin-2-yl)-piperazin-1-yl]methyl-1H-pyrrolo[2,3-b]pyridine] as the compound, how does the inhibition at 0.001 µM (D2; 1 nM, ^3 H-spiperone) read?
**A.** < 10%

**Q.** What about the inhibition at 0.01 µM (D2; 10 nM, ^3 H-spiperone) of the same compound?
**A.** < 10%

**Q.** What about the inhibition at 0.1 µM (D2; 100 nM, ^3 H-spiperone) of the same compound?
**A.** < 10%

**Q.** What about the inhibition at 0.001 µM (D4; 1 nM, ^3 H-spiperone) of the same compound?
**A.** 26%

**Q.** And the inhibition at 0.01 µM (D4; 10 nM, ^3 H-spiperone)?
**A.** 78%

**Q.** What about the inhibition at 0.1 µM (D4; 100 nM, ^3 H-spiperone) of the same compound?
**A.** 98%

**Q.** Which “preference for binding to the D4 receptor relative to the D2 receptor” value [1] does the source give for `CN1CCN(C2=Nc3cc(Cl)ccc3Oc3ccccc32)CC1` [isoloxapine] here?
**A.** about 10 fold

**Q.** What about the Ki (D4 receptor) of the same compound?
**A.** ~20 nM

**Q.** Which Ki (D2) does the source give for “3-[4-(pyridin-2-yl)-piperazin-1-yl]methyl-1H-pyrrolo[2,3-b]pyridine [Example 1]” here?
**A.** 3660 nM

**Q.** And the Ki (D4)?
**A.** 1 nM

**Q.** Which results are given for “3-[4-(5-iodopyridin-2-yl)-piperazin-1-yl]methyl-1H-pyrrolo[2,3-b]pyridine [Example 2]”?
**A.** Ki (D2): 621 nM; Ki (D4): 0.91 nM
